Source: patent US8686022B2, “7-(piperazine-1-ymethyl)-1H-indole-2-carboxylic acid (phenyl)-amide derivatives and allied compounds as p38 MAP kinase inhibitors for the treatment of respiratory diseases” (Boehringer Ingelheim International GmbH, priority 2008, dated 2014)
≈ marks a conversion by molar mass, not a printed value.

Key:
[1] = Determining the solubility (saturated solution in McIlvaine buffer pH 7.4, UV spectroscopy); type: physicochemical; conditions: pH 7.4, aqueous buffer, thermodynamic from solid, shaken 2 hours, 0.75 mg solid in 0.75 ml
Experimental: Determining the Solubility:
Saturated solutions are prepared in suitable well dishes by adding 0.75 ml of a McIlvaine buffer (pH 7.4) to the well in question containing 0.75 mg of solid of an active substance. The wells are shaken for 2 hours and then filtration is carried out through a suitable filter membrane (typically polytetrafluoroethylene with a pore size of 0.45 μm). Filter absorption is prevented by discarding the first few drops of filtrate. The amount of active substance dissolved is determined by UV spectroscopy.

p38 MAP-kinase = p38 MAP-kinase (Homo sapiens, UniProt Q16539); test: p38 MAP-kinase enzymatic assay (phosphorylation of GST-tagged ATF2, chemoluminescence); type: biochemical; conditions: inhibitor concentration 1 μM; activated p38 MAP-kinase 1 nM; ATP 100 μM; read-out: p38 (% Inh @ 1 μM)
Sequence of p38 MAP-kinase (Q16539 whole entry): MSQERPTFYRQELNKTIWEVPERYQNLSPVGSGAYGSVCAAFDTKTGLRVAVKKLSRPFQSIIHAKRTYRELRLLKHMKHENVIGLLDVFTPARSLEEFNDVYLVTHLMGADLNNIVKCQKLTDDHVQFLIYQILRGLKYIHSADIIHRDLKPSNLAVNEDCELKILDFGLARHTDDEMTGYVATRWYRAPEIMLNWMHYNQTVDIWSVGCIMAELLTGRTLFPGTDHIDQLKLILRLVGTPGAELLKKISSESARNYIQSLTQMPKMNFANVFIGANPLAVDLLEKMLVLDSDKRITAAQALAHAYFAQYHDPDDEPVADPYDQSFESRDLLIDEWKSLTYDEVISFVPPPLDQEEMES
Experimental: In this, the amount of a substrate phosphorylated by the kinase is quantified. The test is carried out as follows:
The kinase reaction is carried out in the presence of HEPES (20 mM, pH 7), MgCl2 (10 mM), DTT (1 mM) and TWEEN20 (0.01%). First, dimethylsulphoxide or inhibitor (final concentration: 1 μM) dissolved in dimethylsulphoxide are placed in a reaction vessel. Then the activated p38 MAP-kinase (final concentration 1 nM) is added and the mixture is incubated for 4 h at ambient temperature. Then a mixture of substrate (GST-tagged ATF2) and ATP is added and everything is incubated together for a further hour (final concentration ATP: 100 μM; final concentration ATF2: 10 nM).
The concentration of phosphorylated ATF2 is quantified by chemoluminescence-induced light emission. For this, a glutathione donor bead (final concentration: 5 μg/ml) which binds to the gluthathione on the ATF2 and phospho-ATF2 antibodies are added to the reaction mixture (final concentration: 3 nM; this binds the phosphate group added by the kinase reaction) to which a Protein A Acceptor Bead (final concentration: 5 μg/ml) binds. These components are dissolved in a buffer which contains 20 mM HEPES pH 7.0, 200 mM NaCL, 80 mM EDTA as well as 0.3% BSA. This reaction mixture is incubated in the dark for 1 hour at ambient temperature. When these beads come physically close, visible light is emitted which is measured in a photometer at 520-620 nm.
To determine the inhibitory activity of the compounds according to the invention a calculation is made to determine the percentage by which the kinase activity is inhibited at a fixed inhibitor concentration of 1 μM. The maximum activity is determined by non-inhibited kinase. The minimum activity or nonspecific background activity is determined using a reaction mixture without kinase.
Table 2 summarises the degree of inhibition of the enzyme p38 MAP-kinase—as described hereinbefore—mediated by the compounds according to the invention detailed in the section “Preparation of the final compounds”.

cytochrome P450 2C9 = cytochrome P450 2C9 (Homo sapiens, UniProt P11712); test: Determining the cyp2C9 activity (O-demethylation of [O-methyl-14C]-naproxen); type: in vitro ADME; conditions: human recombinant cytochrome P450 2C9; 37° C.; <0.4 μM when inhibition >50% at lowest concentration; read-out: CYP 2C9 IC50
Sequence of cytochrome P450 2C9 (P11712 whole entry): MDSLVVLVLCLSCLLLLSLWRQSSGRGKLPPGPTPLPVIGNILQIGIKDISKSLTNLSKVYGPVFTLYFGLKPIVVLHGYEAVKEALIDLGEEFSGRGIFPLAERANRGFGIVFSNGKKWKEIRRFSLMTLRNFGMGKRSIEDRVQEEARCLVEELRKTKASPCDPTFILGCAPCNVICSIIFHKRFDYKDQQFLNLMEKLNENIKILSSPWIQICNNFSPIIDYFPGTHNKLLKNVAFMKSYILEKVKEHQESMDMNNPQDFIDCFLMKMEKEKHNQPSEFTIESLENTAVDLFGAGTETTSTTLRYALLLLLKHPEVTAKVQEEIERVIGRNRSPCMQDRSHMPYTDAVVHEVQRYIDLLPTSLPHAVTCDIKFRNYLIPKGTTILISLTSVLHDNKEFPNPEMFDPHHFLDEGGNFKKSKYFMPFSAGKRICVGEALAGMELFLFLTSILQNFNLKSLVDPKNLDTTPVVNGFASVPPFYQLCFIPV
Experimental: Determining the cyp2C9 Activity:
The assay is carried out in a robot system with 96-well plates. The final incubation volume is 200 μl of TRIS-Puffer (0.1 M), magnesium chloride (5 mM), recombinant protein (40 pmol/ml), ^14C-labelled naproxen (80 μM) and the test compound in one of 4 concentrations (50 μM, 10 μM, 2 μM and 0.4 μM) as a duplicate in each case. After a short preincubation period the reactions are started by the addition of the cofactor (NADPH, 1 mM) and ended after 15 min by the addition of 50 μl of a 10% aqueous trichloroacetic acid solution. One aliquot of the incubate is transferred onto a 96-well solid phase extraction plate and extracted. The ^14C-formaldehyde formed during the reaction is not retained on the solid phase extraction plate and is thus separated from the unmetabolised substrate by washing the solid phase extraction plate with water. One aliquot of the eluate is transferred into a well plate suitable for liquid scintillation. […] The IC50 is determined by the least squares method using the following formula: control activity=(100% control activity/(1+(I/IC50)S))−B where I=Inhibitor concentration S=Pitch B=Background activity
When the inhibition of the reaction is >50% even at the lowest concentration of the test compound, the IC50 is given as <0.4 μM.

| SMILES | solubility at 2 h [1] [µg/mL] | inhibition at 1 µM (p38 MAP-kinase) [%] | IC50 (cytochrome P450 2C9) [nM] |
| --- | --- | --- | --- |
| COc1c(NC(=O)c2cc3cccc(CN4CCN(C(=O)[C@@H]5CCCN5C)CC4)c3n2C)cc(CC(C)C)cc1NS(C)(=O)=O [8(2), (S)-1-methyl-7-[4-(1-methyl-pyrrolidine-2-carbonyl)-piperazin-1-ylmethyl]-1H-indole-2-carboxylic acid-(5-isobutyl-3-methanesulphonylamino-2-methoxy-phenyl)-amide] | 120 (≈ 188 µM) | 99.5 | 5770 |
| COc1c(NC(=O)c2cc3cccc(CN4CCN(C(=O)CN5CC[C@H](N(C)C)C5)CC4)c3n2C)cc(C(C)(C)C)cc1NS(C)(=O)=O [6(3), (S)-7-{4-[2-(3-dimethylamino-pyrrolidin-1-yl)-acetyl]-piperazin-1-ylmethyl}-1-methyl-1H-indole-2-carboxylic acid-(5-tert-butyl-3-methanesulphonylamino-2-methoxy-phenyl)-amide] | 910 (≈ 1330 µM) | 98.5 | 2930 |
| COc1c(NC(=O)c2cc3cccc(CN4CCN(C(=O)[C@H]5C[C@@H](O)CN5C)CC4)c3n2C)cc(C(C)(C)C)cc1NS(C)(=O)=O [1(10), 7-[4-((2R,4R)-4-hydroxy-1-methyl-pyrrolidine-2-carbonyl)-piperazin-1-ylmethyl]-1-methyl-1H-indole-2-carboxylic acid(5-tert-butyl-3-methanesulphonylamino-2-methoxy-phenyl)-amide] | 43 (≈ 65.7 µM) | 99.6 | 410 |
| COc1c(NC(=O)c2cc3cccc(CN4CCN(C(=O)CN5CCN(C)CC5)CC4)c3n2C)cc(C(C)(C)C)cc1NS(C)(=O)=O [1(17), 1-methyl-7-{4-[2-(4-methyl-piperazin-1-yl)-acetyl]-piperazin-1-ylmethyl}-1H-indole-2-carboxylic acid-(5-tert-butyl-3-methanesulphonylamino-2-methoxy-phenyl)-amide] | 46 (≈ 68.9 µM) | 99.1 | 990 |
| COc1c(NC(=O)c2cc3cccc(CN4CCC(C(=O)N5CC[C@H](N(C)C)C5)CC4)c3n2C)cc(C(C)(C)C)cc1NS(C)(=O)=O [1(23), (S)-7-[4-(3-dimethylamino-pyrrolidine-1-carbonyl)-piperidin-1-ylmethyl]-1-methyl-1H-indole-2-carboxylic acid-(5-tert-butyl-3-methanesulphonylamino-2-methoxy-phenyl)-amide] | 280 (≈ 420 µM) | 97 | 1770 |
| COc1c(NC(=O)c2cc3cccc(CN4CCN(C(=O)CN5CCN(C(C)C)CC5)CC4)c3n2C)cc(C(C)(C)C)cc1NS(C)(=O)=O [1(14), 7-{4-[2-(4-isopropyl-piperazin-1-yl)-acetyl]-piperazin-1-ylmethyl}-1-methyl-1H-indole-2-carboxylic acid-(5-tert-butyl-3-methanesulphonylamino-2-methoxy-phenyl)-amide] | 120 (≈ 172 µM) | 99.1 | 630 |
| COc1c(NC(=O)c2cc3cccc(CN4CCN(C(=O)[C@H]5C[C@H](O)CN5C)CC4)c3n2C)cc(C(C)(C)C)cc1NS(C)(=O)=O [1(11), 7-[4-((2R,4S)-4-hydroxy-1-methyl-pyrrolidine-2-carbonyl)-piperazin-1-ylmethyl]-1-methyl-1H-indole-2-carboxylic acid(5-tert-butyl-3-methanesulphonylamino-2-methoxy-phenyl)-amide] | 45 (≈ 68.7 µM) | 99.2 | 410 |
| COc1c(CN2CCCC(N(C)C)C2)cc(C(C)(C)C)cc1NC(=O)c1cc2cccc(CN3CCN(C(=O)[C@@H]4CCCN4C)CC3)c2n1C (stereo partly drawn) [9(3), 1-methyl-7-[4-((2S)-1-methyl-pyrrolidine-2-carbonyl)-piperazin-1-ylmethyl]-1H-indole-2-carboxylic acid-[5-tert-butyl-3-(3-dimethylamino-piperidin-1-ylmethyl)-2-methoxy-phenyl]-amide] | 700 (≈ 1020 µM) | 98.9 | 6840 |
| COc1c(NC(=O)c2cc3cccc(CN4CCN(C(=O)[C@@H]5CCCN5C)CC4)c3n2C)cc(C(C)(C)C)cc1C(=O)NC(C)C [10(1), (S)-1-methyl-7-[4-(1-methyl-pyrrolidine-2-carbonyl)-piperazin-1-ylmethyl]-1H-indole-2-carboxylic acid-(5-tert-butyl-3-isopropylcarbamoyl-2-methoxy-phenyl)-amide] | 380 (≈ 602 µM) | 99.1 | 1290 |
| COc1c(NC(=O)c2cc3cccc(CC4CCCN(C(=O)C5CCN(C)CC5)CC4)c3n2C)cc(C(C)(C)C)cc1NS(C)(=O)=O (stereo not drawn) [1(19), 1-methyl-7-[1-(1-methyl-piperidine-4-carbonyl)-azepan-4-ylmethyl]-1H-indole-2-carboxylic acid-(5-tert-butyl-3-methanesulphonylamino-2-methoxy-phenyl)-amide] | 98 (≈ 147 µM) | 98.5 | 3590 |

Further lines, results first:

| solubility at 2 h [1] [µg/mL] | inhibition at 1 µM (p38 MAP-kinase) [%] | IC50 (cytochrome P450 2C9) [nM] | SMILES |
| --- | --- | --- | --- |
| 27 (≈ 38.5 µM) | 98.8 | 1430 | COc1c(NC(=O)c2cc3cccc(CN4CCN(C(=O)[C@@H]5CCCN5C)CC4)c3n2C)cc(C(F)(F)C(F)(F)F)cc1NS(C)(=O)=O [Example 14, (S)-1-methyl-7-[4-(1-methyl-pyrrolidine-2-carbonyl)-piperazin-1-ylmethyl]-1H-indole-2-carboxylic acid-(3-methanesulphonylamino-2-methoxy-5-pentafluoroethyl-phenyl)-amide] |
| 44 (≈ 69.7 µM) | 87.7 | 960 | CCCC(=O)Nc1cc(C(C)(C)C)cc(NC(=O)c2cc3cccc(CN4CCN(C(=O)[C@@H]5CCCN5C)CC4)c3n2C)c1OC [12(1), (S)-1-methyl-7-[4-(1-methyl-pyrrolidine-2-carbonyl)-piperazin-1-ylmethyl]-1H-indole-2-carboxylic acid-(5-tert-butyl-3-butyrylamino-2-methoxy-phenyl)-amide] |
| 680 (≈ 1090 µM) | 99.6 | 3180 | COc1c(C[S+](C)[O-])cc(C(C)(C)C)cc1NC(=O)c1cc2cccc(CN3CCN(C(=O)[C@@H]4CCCN4C)CC3)c2n1C (stereo partly drawn) [11(6), 1-methyl-7-[4-((2S)-1-methyl-pyrrolidine-2-carbonyl)-piperazin-1-ylmethyl]-1H-indole-2-carboxylic acid-(5-tert-butyl-3-methanesulphinylmethyl-2-methoxy-phenyl)-amide] |
| < 1 | 98.8 | < 400 | COc1c(NC(=O)c2cc3cccc(CN4CCN(C(=O)CC5CC5)CC4)c3n2C)cc(C(C)(C)C)cc1NS(C)(=O)=O [Va, reference compound] |
| > 1000 | 18 | 10400 | COc1c(NC(=O)c2cc3cccc(CN4CCN(C(=O)[C@@H]5CCCN5C)CC4)c3n2C)cc(C(C)C)cc1NS(C)(=O)=O [11(2), (S)-1-methyl-7-[4-(1-methyl-pyrrolidine-2-carbonyl)-piperazin-1-ylmethyl]-1H-indole-2-carboxylic acid-(5-isopropyl-3-methanesulphonylamino-2-methoxy-phenyl)-amide] |
